{
  "source": "patent US11193136B2",
  "about": "“Cellulose synthase inhibitors and mutant plants” (VIB VZW, priority 2016, dated 2021)",
  "key": {"[1]": {"tested_on": "ixr1-1, ixr1-2, and ixr2-1 mutants", "assay": "Sensitivity of isoxaben resistant mutants to C17", "format": "in vivo, Arabidopsis", "details": "200 nM C17, 3 days", "from_the_text": "To date, several cellulose synthase inhibitors have been reported. In terms of molecular structure, the C17 compound differs completely from any known cellulose inhibitor.\nFor studying the growth inhibitory effects of C17 on plants, wild type and C17 resistant mutants were germinated on half MS medium (Murashige and Skoog, 1962) supplemented with or without indicated levels of C17 or its analogs. Seven-day-old seedlings were photographed. For observation of the root structure, five-day-old Arabidopsis seedlings were transferred to half MS medium containing different dosages of C17. After a three-day treatment, seedlings were photographed and their root tips were stained with propidium iodide (PI), a fluorescent dye that is excluded from the membranes of healthy cells but penetrates the plasma membrane of dead cells. The stained root tips were visualized by confocal laser scanning microscopy (LSM710, ZEISS). The ixr1-1 (collection number CS6201), ixr1-2 (CS6202) and ixr2-1 (CS6203) mutants were acquired from the ABRC. Five-day-old Arabidopsis seedlings were transferred to half MS medium with or without 200 nM C17. After 3 day, the plants were photographed."}, "[2]": {"tested_on": "Arabidopsis root elongation zone", "assay": "Detection of cell wall weakening by PI uptake under gentle pressure on the root", "format": "in vivo", "method": "Because the cellulose synthesized by the CESA1/CESA3 complex is a primary cell wall component, it was expected that C17-treated plants would display a weaker cell wall, which can be visualized by the uptake of propidium iodide (PI) following the application of a gentle pressure on the root.\nFor the detection of cell wall weakening, 3-day-old seedlings grown on half-strength MS medium were transferred to liquid medium without or with 200 nM C17. The root tips were stained with […] mL^−1 prodium iodide for three min. The stained root tips were put on the Nunc™ Lab-Tek™ Chambered Coverglass (Catalog #155361) without pressure or microscope slide with cover slip that gave a gentle exerting of pressure. By using confocal laser scanning microscopy (LSM710, ZEISS), the brittle cells could be visualized by the uptake of PI."}, "Arabidopsis root": {"tested_on": "Arabidopsis root", "assay": "Root structure and cell death by propidium iodide staining and confocal microscopy", "format": "in vivo", "method": "(§1) C17 (5-(4-chlorophenyl)-7-(2-methoxyphenyl)-1,5,6,7-tetrahydro-[1,2,4]triazolo[1,5-a]pyrimidine; ChemDiv, Catalogue #: 7693622), a synthetic molecule, was identified from a chemical screen as a ploidy-inducing compound in Arabidopsis protoplasts. To test the effects of C17 on plants, Arabidopsis seeds were plated on half MS medium (Murashige, T. and F. Skoog, 1962) in the presence or absence of 200 nM C17 or its analogues. […] To dissect the C17 inhibitory effects, we employed confocal laser scanning microscopy (LSM710, ZEISS) to observe the root structure. Five-day-old Arabidopsis seedlings grown on vertical plates were transferred to half MS medium containing C17 for further growth. After three-day treatment, the root tips were analysed. Consistent to its growth inhibitory activity, C17 caused cell death at a concentration as little as 25 nM (FIG. 2). At the lowest concentration applied, root cortical cells of the transition zone were affected. This phenotype was aggravated and expanded to other tissues with an increasing dosage of C17 (FIG. 2).\n(§2) For studying the growth inhibitory effects of C17 on plants, wild type and C17 resistant mutants were germinated on half MS medium (Murashige and Skoog, 1962) supplemented with or without indicated levels of C17 or its analogs. Seven-day-old seedlings were photographed. […]"}, "[3]": {"tested_on": "wild type Arabidopsis (Col-0)", "assay": "Growth of Arabidopsis seedlings on half MS medium with C17 or analogues", "format": "in vivo", "details": "200 nM", "method": "as §1, §2"}},
  "data": [
    {"smiles": "COc1ccccc1C1CC(c2ccc(Cl)cc2)N=C2N=CNN21", "note": "(stereo not drawn) [C17, 5-(4-chlorophenyl)-7-(2-methoxyphenyl)-1,5,6,7-tetrahydro-[1,2,4]triazolo[1,5-a]pyrimidine]", "values": [
      {"measurement": "sensitivity of isoxaben resistant mutants (ixr1-1, ixr1-2, ixr2-1)", "setting": "[1]", "value": "still sensitive"},
      {"measurement": "PI uptake and growth inhibition in C17-tolerant mutants", "setting": "[2]; 200 nM C17, C17-tolerant mutants", "value": "No PI-positive cells and growth inhibition"},
      {"measurement": "time to cell wall weakening in the root elongation zone", "setting": "[2]; 200 nM C17, wild type, PI uptake", "value": "≤ 2", "unit": "h"},
      {"measurement": "cell elongation phenotype", "setting": "Arabidopsis root; 100 nM C17, three-day treatment", "value": "radical rather than polar cell elongation"},
      {"measurement": "concentration causing cell death in the root", "setting": "Arabidopsis root; five-day-old seedlings, three-day treatment, lowest concentration applied", "value": 25, "unit": "nM"},
      {"measurement": "effect on plant growth", "setting": "[3]", "value": "severe growth inhibition accompanied by radial swelling of the root tip"}
    ]}
  ]
}
